Reference: patent publication US20080045477A1, “Series Of New 4,6-Diamino-1,2-Dihydro-1-Aryl-1,3,5-Triazines, Substituted By An Adamantyl Moiety In The Position 2 Of Triazine-Their Corresponding Salts, Isomers,Steroisomers, Enantiomers, Free Bases And The Complexes Of All The Above With Natural Macromolecules And Their Synthetic Derivatives” (priority 2001, published 2008)

- melting point: 168 to 170 °C
SMILES: NC1=NC(C23CC4CC(CC(C4)C2)C3)N(c2ccc(Cl)cc2)C(N)=N1 (stereo not shown) [Example free base, 4,6-Diamino-1,2-dihydro-1-(4-chlorophenyl)-2-(1-tricyclo[3.3.1.1^3,7]decyl)-1,3,5-triazine]
